The values below come from ChEMBL document CHEMBL3639274, “Compounds for the treatment of neurodegenerative diseases” (2015).

The first test deals with Microtubule-associated protein tau (Homo sapiens, UniProt P10636). Briefly: Thio S Fluorometry Assay: The Thio S fluorometry assay as a primary screening method to identify tau protein aggregation inhibitors from our small molecule library. Aggregated tau fibrils were prepared in the presence of equimolar ratios of TauRD and heparin (10 μM each) in 20 mM Na-phosphate buffer, pH7.4. The reaction mixture was incubated at 37° C. with shaking (800-1000 rpm) for 22-24 hr (or for 3 days). In the Thio S inhibition assays, test compounds at 0, 0.1, 1, 10 and 100 μM were added at time 0 into the reaction containing TauRD and heparin. The same reaction mixture (+/− increasing concentrations of compounds) but without TauRD were also set up in parallel to serve as background controls. For all test compounds background fluorescence readings were very low, usually <5% of those of the TauRD-containing wells. For each compound, the IC50 was calculated using Prism version 5 software (GraphPad Software) by nonlinear regression [(Log [inhibitor] vs. normalized response; variable slope)].
Microtubule-associated protein tau, sequence (P10636 whole entry): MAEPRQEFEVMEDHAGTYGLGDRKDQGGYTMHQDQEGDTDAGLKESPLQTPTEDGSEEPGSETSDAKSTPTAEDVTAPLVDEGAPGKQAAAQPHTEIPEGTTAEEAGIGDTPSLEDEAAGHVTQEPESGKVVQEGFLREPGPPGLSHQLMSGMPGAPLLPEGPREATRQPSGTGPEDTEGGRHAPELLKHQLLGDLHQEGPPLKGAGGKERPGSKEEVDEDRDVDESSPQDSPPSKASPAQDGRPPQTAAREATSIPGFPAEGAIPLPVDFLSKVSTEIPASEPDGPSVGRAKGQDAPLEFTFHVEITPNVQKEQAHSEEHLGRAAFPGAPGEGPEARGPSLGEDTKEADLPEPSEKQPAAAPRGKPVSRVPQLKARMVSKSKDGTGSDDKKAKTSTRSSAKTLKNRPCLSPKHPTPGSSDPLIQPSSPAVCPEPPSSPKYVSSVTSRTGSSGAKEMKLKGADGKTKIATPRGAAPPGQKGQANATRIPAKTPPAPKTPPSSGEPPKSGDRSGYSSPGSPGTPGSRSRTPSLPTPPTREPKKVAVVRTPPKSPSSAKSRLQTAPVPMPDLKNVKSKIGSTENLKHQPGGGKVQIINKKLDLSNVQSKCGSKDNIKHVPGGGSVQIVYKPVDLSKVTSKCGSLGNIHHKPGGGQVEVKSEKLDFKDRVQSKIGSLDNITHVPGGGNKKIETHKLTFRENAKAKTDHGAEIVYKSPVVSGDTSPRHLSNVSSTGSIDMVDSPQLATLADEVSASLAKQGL
Consider `O=[N+]([O-])c1cc(-c2ccc(O)c(O)c2)ccc1-c1ccc(O)c(O)c1`, for which the IC50 was 24.7 µM.
The same measure, in the same setting: as for `Oc1ccc(-c2nnc(-c3ccc(O)c(O)c3)o2)cc1O`, the figure is 3940 µM; as for `CC(=O)N1N=C(c2ccc(O)c(O)c2)CC1c1ccc(O)c(O)c1` (stereo not drawn), 78.5 µM.
On to `Oc1ccc(-c2cnc(-c3ccc(O)c(O)c3)o2)cc1O`, for which the IC50 was 117 µM.
Consider `Oc1ccc(Cc2cc(O)c(O)cc2O)cc1O`, for which the IC50 is 5.2 µM.
On to `O=C(/C=C/c1ccc(O)c(O)c1)c1ccc(O)c(O)c1`, for which the IC50 was 21.4 µM.
Same read-out and setting: as for `Oc1ccc(-c2cc(Br)c(-c3ccc(O)c(O)c3)s2)cc1O`, the figure is 211 µM.
`Oc1ccc(-c2nsc(-c3ccc(O)c(O)c3)n2)cc1O`: the IC50 was 10.2 µM.
Regarding `Oc1ccc(-c2cn(-c3ccc(O)c(O)c3)nn2)cc1O`, the IC50 was 34 µM.
The same measure, in the same setting: as for `O=C(/C=C/c1cc(O)c(O)cc1Br)c1ccc(O)c(O)c1`, the figure is 9.02 µM; as for `O=C(/C=C/c1ccc(O)c(O)c1)c1cc(O)c(O)cc1Br`, 21.2 µM; as for `Oc1ccc(-c2nc3cc(O)c(O)cc3o2)cc1O`, 7.34 µM.

The next test deals with Alpha-synuclein (Homo sapiens, UniProt P37840). In words: In order to assess relative binding affinities of the test compounds for aggregated α-synuclein, competition assays were set up with a radiolabeled molecule already known to bind to α-synuclein fibrils and non-radiolabeled test compounds. In order to induce its aggregation, α-synuclein was incubated in phosphate buffered saline (PBS, pH 7.4) at 37° C. for three days with shaking (1,400 rpm). Competitive binding assays were carried out in 12×75 mm borosilicate glass tubes.
For the compound `Oc1ccc(-c2cnc(-c3ccc(O)c(O)c3)o2)cc1O`, the Ki was 659 nM.

One may read the IC50 as the concentration needed to halve the response being measured. What is called Ki is a dissociation constant, usually derived from enzyme kinetics or from competition with a known ligand. Read a high Ki as weaker binding.
